Results on 2 molecules are retold here after patent US20060239927A1, “Drug for airway administration” (Kyowa Hakko Kogyo Co.,, priority 2003, published 2006).

Type in all cases: in vivo
For series [1], the system named is antigen-induced neutrophil infiltration. Description: Antigen-induced neutrophil infiltration, intrabronchial administration (BALF cell count). Conditions: BN rats; for Number of neutrophils: BAL 24 hours after antigenic exposure, mean ± standard error; for inhibitory effect to infiltration of neutrophils induced by antigen (in words): 30 to 100 μg/rat. As to the method:
(§1) The test was conducted in accordance with a known method [Pulmonary Pharmacology, volume 8, pages 83-89 (1995)].
(§2) Male BN rats of six weeks age (Nippon Charles Liver) were used for the test. Five to six rats were put in each plastic cage in a breeding room where the room temperature was 19 to 25° C., humidity was 30 to 70% and a daily illumination was 12 hours (from 7 a.m. to 7 p.m.), and breeding was conducted where commercially available solid feed and water were freely taken by the rats.
(§3) A suspension (1 mL) of 1 mg of ovalbumin (OVA; manufactured by Sigma) and 200 mg of aluminum hydroxide (manufactured by Wako Pure Chemical) in 1 mL of a physiological saline (manufactured by Otsuka Pharmaceutical) was subcutaneously administered to each rat, and then 0.5 mL of a suspension of killed Virdetella pertussis (2×10^10 cells/mL physiological saline solution; manufactured by Kaken Pharmaceutical) was intraperitoneally administered to conduct active sensitization. After 14 days from the active sensitization, the rats were placed in a plastic chamber (30×50×30 cm) and subjected to an antigenic exposure by nebulizing of an 1 weight/volume % solution of OVA in a physiological saline for 10 minutes. For the nebulizing, an ultrasonic nebulizer (manufactured by Omron) was used.
(§4) By the same manner as in Test Example 1, a suspension for administration of Compound (II) was prepared and intrabronchially administered to the sensitized rats.
(§5) Before 30 minutes of the antigenic exposure, the solvent for administration or the suspension for administration of Compound (II) was intrabronchially administered to the sensitized rats at a dose of 100 μL to each of right and left bronchi (200 μL in total). A group where a suspension for administration of Compound (II) was intrabronchially administered to the sensitized rat and an 1 weight/volume % OVA-physiological saline solution was nebulized, was called a Compound (II)-administered group; a group where the solvent for administration was intrabronchially administered to the sensitized rat and an 1 weight/volume % OVA-physiological saline solution was nebulized, was called a solvent-administered group; and a group where the solvent for administration was intrabronchially administered and a physiological saline was nebulized, was called a physiological saline group.
(§6) After 24 hours of the antigenic exposure or of the nebulizing with a physiological saline, a broncho-alveolar lavage (BAL) was conducted. Thus, a rat was anesthetized by an intraperitoneal administration of pentobarbital (manufactured by Dainippon Pharmaceutical) and pulmonary alveoli cavity was washed with a physiological saline via an airway cannula to prepare a broncho-alveolar lavage fluid (BALF).
(§7) The BALF was centrifuged under the condition of 950 rpm (200×g) at 4° C. for 10 minutes, the precipitated cells were suspended in 1 mL of a physiological saline, and total leukocyte numbers were measured by an automatic blood corpuscle counter (manufactured by Nippon Koden). Smeared samples of cells were also prepared using Cytospin III (manufactured by Shandon). After the smeared sample was subjected to a Giemsa staining, 500 cells were observed under an optical microscope, numbers of eosinophils and neutrophils were counted and their ratios were calculated. Number of eosinophils and number of neutrophils were calculated by multiplying the total leukocyte numbers by each ratio of number of eosinophils and number of neutrophils, respectively. Inhibition rate (%) to increases of number of eosinophils and number of neutrophils respectively in BALF was calculated according to the following. [formula]
(§8) A: Numbrer of eosinophils or neutrophils in the solvent-administering group
(§9) B: Numbrer of eosinophils or neutrophils in the Compound (II)-administered group
(§10) C: Numbrer of eosinophils or neutrophils in the physiological saline group

In series [2] the test system is antigen-induced eosinophil infiltration. The series can be described thus: Antigen-induced eosinophil infiltration, intrabronchial administration (BALF cell count). Conditions: BN rats; for Number of eosinophils: BAL 24 hours after antigenic exposure, mean ± standard error; for inhibitory effect to infiltration of eosinophils induced by antigen (in words): 30 to 100 μg/rat. As to the method: as §1, §2, §3, §4, §5, §6, §7, §8, §9, §10

Another series has as its system gastric excretion. The series can be described thus: Inhibitory activity for gastric excretion by intrabronchial administration (Phenol Red method). Conditions: SD rats, intrabronchial 30 minutes before P-C solution, 30 to 100 μg/rat. As to the method:
Male SD rats (six weeks age; body weight upon purchase was 180 to 200 g; Nippon SLC) were used for the test. The rats were bred in an animal room where room temperature was 23±1° C., humidity was 55±5% and solid feed and drinking water were made freely taken by them.
Suspensions for administration of Compound (II) and RP 73401 were prepared by the same manner as in Test Example 1 and each of them was subjected to an intrabronchial administration.
The rats (body weight used for the experiment: about 200 g) were fasted on the day before the test (before about 24 hours) and were bred only by drinking water. A test for gastric excretion was conducted according to a Phenol Red method [Arch. Int. […]
A 1.5 mL of an 1.5 weight/volume % carboxymethyl cellulose (CMC) solution containing a 0.05 weight/volume % Phenol Red (hereinafter, referred to as P—C solution) was orally administered to the rats where one group comprised six rats. […] The extirpated stomach was incised in 40 mL of a 0.1 mol/L aqueous NaOH solution to recover the P—C solution and the amount of Phenol Red remaining in the stomach was measured. […] The gastric excretion ratio (%) in the agent-administered group or the solvent-administered group was calculated by the following equation (1) while the inhibition rate (%) of the agent to the gastric excretion was calculated from the gastric excretion ratio using the following equation (2). […]

A short description of series [3]: Changes in concentration in lung tissues and in plasma upon intra-airway (intrabronchial) administration. As to conditions: SD rats, 4 mg/kg; for AUC in lung tissues (concentration in lung tissues) / AUC in plasma (concentration in plasma): 0.25-4 hours; for half-life / Kp: male, rat, other: intrabronchial; for half-life: in vivo, read-out: biological half-life (T1/2) (converted); for Kp: lung tissue / plasma, read-out: ratio of concentration in lung tissues to concentration in plasma (AUC). As to the method: Male rats of SD strain (Nippon Charles Liver, Kanagawa) were bred under the condition of temperature of 23±1° C. and humidity of 55±5%, and those where body weight was 210 to 240 g at seven weeks age were used for the test. Administration of the test compound (Compound (II)) was conducted under a non-fasting condition, and during the test, solid feed (F-2; Funahashi Nojo, Chiba) and tap water were freely taken by them. Case numbers for the test was made n=2 for each stage.
According to a conventional method, the preparations of Compound (II) and RP 73401 being known as a PDE-IV inhibitor [drawing 9] [J. Med. Chem., volume 37, pages 1696-1703 (1994)] were prepared (lactose/Compound (II) or RP 73401=5/1), and each of them was suspended in 0.125 weight/volume % tyloxapol (Alevaire: registered trade mark, Nippon Shoji, Osaka). The resulting suspension was further diluted with 0.125 weight/volume % tyloxapol containing 0.25 weight/volume % of lactose (Pharmatose 325 M; registered trade mark, DMV International, Veghel, The Nethelands) (a solvent for administration), and a suspension for administration of Compound (II) or RP 73401 having an desired concentration was prepared.
Each of Compound (II) and RP 73401 was intrabronchially administered at a dose of 4 mg/kg, respectively. The solvent for administration or the suspension for administration of Compound (II) or RP 73401 was intrabronchially administered to each of right and left bronchi of an ether-anesthetized rat at a dose of 100 μL (200 μL in total) using a disposable oral sound (for mice; Fuchigami Kikai, Kyoto).
At each of stages of 0.25, 0.5, 1, 2 and 4 hours after the intrabronchial administration, abdomen of rat under a light anesthetization with ether was incised, and about 1 mL of blood was collected from a descending vena cava using a heparin-treated syringe (24 G; 1 mL; Thermo, Tokyo). Plasma was separated from the blood using a cooling centrifugal separator and stored by freezing at −20° C. until the measurement. After washing the pulmonary alveoli, the bronchus was resected to collect the lung. The wet weight of the lung was measured and the lung was stored by freezing.
To 100 μL of the plasma collected hereinabove was added a 200 μL of methanol solution of 25 μg/mL 7-[2-(3,5-dichloro-4-pyridyl)-1-oxoethyl]-4-methoxy-spiro-[1,3-benzodioxole-2,1′-cyclohexane] (an internal standard substance), and the mixture was stirred. The mixture was allowed to stand for 10 minutes on ice, followed by centrifuged, and then 200 μL of the supernatant was dried under a nitrogen flow. The resulting solid was dissolved in 200 μL of methanol and centrifuged. The resulting supernatant was subjected to centrifugal filtration using a centrifugal filtration unit ultrafree (C3GV; 0.22 μm; Nippon Millipore, Tokyo). The filtrate (100 μL) was used as a plasma sample and concentrations of Compound (II) and RP 73401 were measured using a mass spectrometer (LC/MS/MS).
In an immunotube (15 mL: Nunc, Glostrup, Denmark), to the lung prepared hereinabove was added the internal standard substance in which the concentration to the lung tissues was previously made 10 μg/g lung tissues, and the mixture was dried under a nitrogen flow. To the resulting solid was added pure water (Milli-Q SP Reagent Water System: Nippon Millipore, Tokyo) in an amount of one-fold to the wet weight followed by subjecting to homogenizing using a homogenator (Ikemoto Rika Kogyo, Tokyo). A two-fold amount of methanol was further added thereto and the mixture was homogenized, allowed to stand for 10 minutes on ice and centrifuged. The supernatant (300 μL) was taken into a microtube and centrifuged once again. The resulting supernatant (100 μL) was used as a lung sample, and concentrations of Compound (II) and RP 73401 were measured by using of a high-performance liquid chromatography (HPLC).

In the case of `COc1ccc(C(=O)Cc2c(Cl)cncc2Cl)c2c1OC1(CCCC1)O2` [Compound (II), 7-[2-(3,5-dichloro-4-pyridyl)-1-oxoethyl]-4-methoxy-spiro-[1,3-benzodioxole-2,1′-cyclopentane]], in series [1] (30 μg/rat), the “Inhibition rate to increase of number of neutrophils in BALF” value is 56% and the Number of neutrophils is 0.64 ± 0.14 10^6/BALF. In series [1] (100 μg/rat), the “Inhibition rate to increase of number of neutrophils in BALF” value stood at 80% and the Number of neutrophils is listed as 0.43 ± 0.06^# 10^6/BALF. Moreover, in series [1], the “inhibitory effect to infiltration of neutrophils induced by antigen (in words)” value is recorded as “inhibited”. Also, in series [2] (30 μg/rat), the “Inhibition rate to increase of number of eosinophils in BALF” value came out at 50% and the Number of eosinophils was 0.09 ± 0.03 10^6/BALF. In series [2] (100 μg/rat), the “Inhibition rate to increase of number of eosinophils in BALF” value is 86% and the Number of eosinophils is listed as 0.04 ± 0.01^## 10^6/BALF. The “inhibitory effect to infiltration of eosinophils induced by antigen (in words)” value in series [2] is on record as “inhibited”. In addition, the “inhibitory effect to gastric excretion (in words)” value in the series with gastric excretion is recorded as “no significant inhibitory effect to gastric excretion was observed”. In addition, in series [3], the AUC in lung tissues (concentration in lung tissues) turned out to be 3640 µg·h/mL, the AUC in plasma (concentration in plasma) came to 0.733 µg·h/mL, the half-life is 3.81 h and the Kp was determined as 4970.

`COc1ccc(C(=O)Nc2c(Cl)cncc2Cl)cc1OC1CCCC1` [RP 73401, reference compound]: the “inhibitory effect to infiltration of neutrophils induced by antigen (in words)” value in series [1] is on record as “significant inhibitory activity”. For the same molecule, the “inhibitory effect to infiltration of eosinophils induced by antigen (in words)” value in series [2] is on record as “significant inhibitory activity”. For the same molecule, the “inhibitory effect to gastric excretion (in words)” value with gastric excretion was “a dose-depending inhibitory effect to gastric excretion was observed”. In series [3], the AUC in lung tissues (concentration in lung tissues) amounted to 248 µg·h/mL, the AUC in plasma (concentration in plasma) was determined as 0.826 µg·h/mL, the half-life was 0.341 h and the Kp worked out at 300.
